From patent US6492360B1, “Phthalazine derivatives phosphodiesterase 4 inhibitors” (Zambon Group S.p.A., priority 1998, dated 2002) come the findings set out here.

Structures can show the parent of a compound that is named as a salt.

This assay has as its target PDE 4. The assay is described as follows: PDE 4 enzyme inhibition (SPA). Particulars: PDE 4 purified from human PMNs; cAMP 1 μM. It is filed as biochemical. As for the experimental part: a) Human Polymorphonuclear Leukocyte Isolation
The polymorphonuclear leukocytes (PMNs) were isolated from peripheral blood of healthy volunteers according to Boyum A. (Scand. J. Immunol., 1976, 5th suppl., 9). Briefly, the PMNs were purified by Ficoll-Paque gradient centrifugation followed by sedimentation on dextran and the erythrocyte contamination was eliminated by hypotonic lysis.
b) PDE 4 Enzyme Purification
The human PMNs were suspended in TRIS/HCl buffer (10 mM, pH 7.8) containing MgCl2 (5 mM), EGTA (4 mM), mercaptoethanol (5 mM), TRITON-X100 (1%), pepstatin A (1 μM), PMSF (100 μM) and leupeptin (1 μM), and homogenised by Polytron homogeniser. The homogenate was centrifuged at 25,000×g for 30 minutes at 4° C. and the PDE 4 enzyme was purified by ion exchange chromatography using the FPLC technique according to Schudt C. et al. (Naunyn-Schmidberg's Arch. Pharmacol., 1991, 334, 682). The supernatant was seeded on a UNO Q12 column (Bio-Rad) and the enzyme was eluted by sodium acetate linear gradient from 50 mM to 1M using a flow rate of 4.5 ml/minutes. The fractions containing enzymatic activity were pooled, dialysed against water and concentrated. The PDE 4 enzyme was stored at, −20° C. in the presence of ethylene glycol (30% v/v) until the use.
The enzyme activity was evaluated with a Scintillation Proximity Assay (SPA) kit (Amersham). The enzymatic reaction was performed in a final volume of 100 μl of TRIS/HCl buffer (50 mM, pH 7.5), MgCl2 (8.3 mM), EGTA (1.7 mM), cAMP (1 μM) and [^3H]cAMP (˜100.000 dpm) as tracer. The compounds of the invention, the reference ones or the vehicle were added at different concentrations. As reference compounds 6,7-dimethoxy-4-pyridin-4-yl-methyl)2H-phthalazin-1-one (reference 1) and 6,7-dimethoxy-4-(piperidin-4-yl-methyl)2H-phthalazin-1-one (reference 2) embraced by the general formula of the patent application EP-0 722 936 (in the name of Eisai) were used. The reaction was started by adding 1.5 μg protein and incubated for 40 minutes at 30° C. SPA beads (50 μl) containing 18 mM zinc sulphate were added to stop the reaction and after 20 minutes at room temperature the radioactivity was measured using a scintillation counter.
The IC50 value refers to the nanomolar concentration of the compound required to inhibit cyclic nucleotide hydrolysis by 50%, and it was calculated by non-linear regression analysis.
On to `COc1ccc2c(Cc3c(Cl)cncc3Cl)nncc2c1C#CCCCN1CCOCC1` [Compound 36, 1-(3,5-Dichloro-pyridin-4-ylmethyl)-6-methoxy-5-(5-morpholin-4-yl-pent-1-ynyl)-phthalazine dihydrochloride], for which half-maximal inhibition (IC50) required 96.4 ± 7.3 nM.

For `CCC(=O)N1Cc2cc(OC)ccc2C(Cc2c(Cl)cncc2Cl)=N1` [Compound 10, 1-[4-(3,5-Dichloro-pyridin-4-ylmethyl)-7-methoxy-1H-phthalazin-2-yl]-propan-1-one], the IC50 – broadly, the concentration that inhibits the measured activity by half – is 28 ± 4 nM.

`COc1ccc2c(c1)CN(C(=O)c1ccccc1)N=C2Cc1c(Cl)cncc1Cl` [Compound 12, [4-(3,5-Dichloro-pyridin-4-ylmethyl)-7-methoxy-1H-phthalazin-2-yl]-phenyl-methanone]: the IC50 is 30 ± 8 nM.

Regarding `COc1ccc2c(Cc3c(Cl)cncc3Cl)nncc2c1C=CCCCc1ccccc1` [Compound 33, 1-(3,5-Dichloro-pyridin-4-ylmethyl)-6-methoxy-5-(5-phenyl-pent-1-enyl)phthalazine], the IC50 stood at 19 ± 3 nM.

On to `COc1ccc2c(Cc3c(Cl)cncc3Cl)nncc2c1C#CCCCc1ccccc1` [Compound 32, 1-(3,5-Dichloro-pyridin-4-ylmethyl)-6-methoxy-5-(5-phenyl-pent-1-ynyl)-phthalazine], for which the IC50 amounted to 10 ± 2 nM.

As for `FC(F)Oc1ccc2c(Cc3c(Cl)cncc3Cl)nnc(N3CCOCC3)c2c1` [Compound 55, 1-(3,5-Dichloro-pyridin-4-ylmethyl)-6-difluoromethoxy-4-morpholin-4-yl-phthalazine], the midpoint of inhibition, the IC50, lay at 312 ± 48 nM.

Molecule `COc1ccc2c(c1)CN(C(=O)Cc1ccccc1)N=C2Cc1c(Cl)cncc1Cl` [Compound 13, 1-[4-(3,5-Dichloro-pyridin-4-ylmethyl)-7-methoxy-1H-phthalazin-2-yl]-2-phenyl-ethanone] yielded an IC50 of 12 ± 2 nM.

`COc1ccc2c(c1)CN(C(N)=O)N=C2Cc1c(Cl)cncc1Cl` [Compound 9, 4-(3,5-Dichloro-pyridin-4-ylmethyl)-7-methoxy-1H-phthalazine-2-carboxylic acid amide]: half-maximal inhibition (IC50) required 36 ± 4 nM.

Consider `COc1ccc2c(Cc3c(Cl)cncc3Cl)nn(S(C)(=O)=O)c(=O)c2c1` [Compound 24, 4-(3,5-Dichloro-pyridin-4-methyl)-2-methanesulfonyl-7-methoxy-2H-phthalazin-1-one], for which the 50% inhibitory concentration (IC50) was determined as 36 ± 9 nM.

`COc1ccc2c(Cc3c(Cl)cncc3Cl)nncc2c1C#CCO` [Compound 37, 3-[1-(3,5-Dichloro-pyridin-4-ylmethyl)-6-methoxy-phthalazin-5-yl]-prop-2-yn-1-ol]: the IC50 stood at 61 ± 2.4 nM.

`COc1ccc2c(Cc3c(Cl)cncc3Cl)nncc2c1C#CCN(C)Cc1ccccc1` [Compound 35, Benzyl-{3-[1-(3,5-dichloro-pyridin-4-ylmethyl)-6-methoxy-phthalazin-5-yl]-prop-2-ynyl}-methyl-amine dihydrochloride]: the half-maximal inhibitory concentration (IC50) was 7.1 ± 0.5 nM.

`COC(=O)N1Cc2cc(OC)ccc2C(Cc2c(Cl)cncc2Cl)=N1` [Compound 16, 4-(3,5-Dichloro-pyridin-4-ylmethyl)-7-methoxy-1H-phthalazine-2-carboxylic acid methyl ester] gave an IC50 of 72 ± 16 nM.
